Laboratory results taken from publication PMC4768645, “Electronic Olfactory Sensor Based on A. mellifera Odorant‐Binding Protein 14 on a Reduced Graphene Oxide Field‐Effect Transistor” (Angewandte Chemie (International Ed. in English), 2015).
Read-outs that look alike come from different tables or passages of the source. One block for each compound: values may come before it.

Target: T1, odorant-binding protein 14 (OBP14) (Apis mellifera, UniProt A0A8U0WQC3)
T1 construct: recombinant OBP14, cloning, expression and purification in supplement; immobilised via PBSE linker on reduced graphene oxide FET gate
T1 sequence (A0A8U0WQC3 17-135): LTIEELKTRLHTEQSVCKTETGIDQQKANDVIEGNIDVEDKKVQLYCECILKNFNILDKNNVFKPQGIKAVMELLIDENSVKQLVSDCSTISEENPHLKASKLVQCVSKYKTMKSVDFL
Experiment: rGO-FET biosensor, real-time source-drain current, global Langmuir analysis
Source text: rGO-FET biosensor, real-time source-drain current, global Langmuir analysis on odorant-binding protein 14 (OBP14)

- Kd (read-out: Methyl eugenol): 1400 µM
Structure (SMILES): C=CCc1ccc(OC)c(OC)c1 [Methyl eugenol]

- Kd (read-out: Methyl vanillate): 20 µM
Structure (SMILES): COC(=O)c1ccc(O)c(OC)c1 [Methyl vanillate]

The remaining lines, values behind:

Structure (SMILES): C=CCc1ccc(O)c(OC)c1 [Eugenol]
- Kd (read-out: Eugenol): 40 µM

Structure (SMILES): CC(C)=CCCC(C)=CC=O [Citral]
- Kd (read-out: Citral): 800 µM

Structure (SMILES): COc1cc(CC(=O)O)ccc1O [Homovanillic acid]
- Kd (read-out: Homovanillic acid): 4 µM

Structure (SMILES): CC(C)=CCC/C(C)=C/CO [Geraniol]
- Kd (read-out: Geraniol): 3300 µM
